Consider seven compounds from patent publication US20060135522A1, “Tricyclic delta-opioid modulators” (priority 2004, published 2006).

Structures are written as SMILES. Read-outs that look alike come from different tables or passages of the source.

The target in one assay is T1, delta opioid receptor (Rattus norvegicus, UniProt P33533).
T1 construct: from tissue; host or cells: forebrain of male Wistar rats (particulate membrane preparation)
Nature of the assay: Rat Brain Delta Opioid Receptor Binding Assay. How it is done: Procedure: Male, Wistar rats (150-250 g, VAF, Charles River, Kingston, N.Y.) were killed by CO2, and their brains were removed and placed immediately in ice cold Tris HCl buffer (50 mM, pH 7.4). The forebrains were separated from the remainder of the brain by a coronal transection, beginning dorsally at the colliculi and passing ventrally through the midbrain-pontine junction. After dissection, the forebrains were homogenized in Tris buffer in a Teflon®-glass homogenizer. The homogenate was diluted to a concentration of 1 g of forebrain tissue per 80 mL Tris and centrifuged at 39,000×g for 10 min. The pellet was resuspended in the same volume of Tris buffer containing 5 mM MgCl2 with several brief pulses from a Polytron homogenizer. This particulate preparation was used for the delta opioid binding assays. Following incubation with the delta selective peptide ligand ˜4 nM [^3H]DPDPE or 0.15 nM [^3H]naltrindole at 25° C. for 2.5 h in a 96-well plate with total volume of […], the plate contents were filtered through Wallac filtermat B sheets on a Tomtec 96-well harvester. The filters were rinsed three times with 2 mL of 10 mM HEPES (pH 7.4), and dried in a 650 W microwave oven for 1.75 min twice. To each sample area 2×50 μL of Betaplate Scint scintillation fluid (LKB) was added and the radioactivity was quantified on a LKB (Wallac) 1205 BetaPlate liquid scintillation counter.
(§1) Analysis: The data from the scintillation counter was used to calculate either the % inhibition compared to control binding (when only a single concentration of test compound was evaluated) or a Ki value (when a range of concentrations was tested). Percent inhibition was calculated as: [(total dpm-test compound dpm)/(total dpm-nonspecific dpm)]*100. Kd and Ki values were calculated using GraphPad PRISM data analysis program.

The next assay addresses T2, mu opioid receptor (Rattus norvegicus, UniProt P33535).
T2 construct: from tissue; host or cells: forebrain of male Wistar rats (particulate membrane preparation)
Nature of the assay: Rat Brain Mu Opioid Receptor Binding Assay. How it is done: Procedure: Male, Wistar rats (150-250 g, VAF, Charles River, Kingston, N.Y.) were killed by CO2, and their brains were removed and placed immediately in ice cold Tris HCl buffer (50 mM, pH 7.4). The forebrains were separated from the remainder of the brain by a coronal transection, beginning dorsally at the colliculi and passing ventrally through the midbrain-pontine junction. After dissection, the forebrains were homogenized in Tris buffer in a Teflon®-glass homogenizer. The homogenate was diluted to a concentration of 1 g of forebrain tissue per 80 mL Tris and centrifuged at 39,000×g for 10 min. The pellet was resuspended in the same volume of Tris buffer containing 5 mM MgCl2 with several brief pulses from a Polytron homogenizer. This particulate preparation was used for the mu opioid binding assays.
as §1

Assay [1] addresses T3, delta opioid receptor (NG108-15 cell membranes) (Mus musculus, UniProt P32300).
T3 construct: NG108-15 cell membranes were purchased from Applied Cell Sciences (Rockville, Md.); host or cells: NG108-15 cell membranes (purchased)
Nature of the assay: [35S]GTPγS Binding Assay in NG108-15 Cell Membranes (Delta Opioid). The class given is biochemical. As for the experimental part:
Methods: NG108-15 cell membranes were purchased from Applied Cell Sciences (Rockville, Md.). 8 mg/mL of membrane protein was suspended in 10 mM TRIS-HCl pH 7.2, 2 mM EDTA, 10% sucrose. Membranes were maintained at 4-8° C. A 1 mL volume of membranes was added into 10 mL cold binding assay buffer. The assay buffer contained 50 mM Tris, pH 7.6, 5 mM MgCl2, 100 mM NaCl, 1 mM DTT and 1 mM EGTA. The membrane suspension was homogenized twice with a Polytron, and centrifuged at 3000 rpm for 10 min. The supernatant was then centrifuged at 18,000 rpm for 20 min. Ten mL assay buffer was added into the pellet containing tube. The pellet and buffer were mixed with a Polytron.
Incubation procedure: The pellet membranes (75 μg/mL) were preincubated with SPA (10 mg/mL) at 25° C. for 45 min in the assay buffer. […] GTPγS in the same Tris buffer containing 100 μM GDP in a total volume of 200 μL. Increasing concentrations of receptor agonists were used to stimulate [^35S]-GTP[…]S binding. The basal binding was tested in the absence of agonists and non-specific binding was tested in the presence of 10 μM unlabeled GTPγS. The data were analyzed on a Packard Top Count.
% of Basal=(stimulated−non specific)*100/(basal−non specific).
EC50 value values were calculated using GraphPad Prism.

Where [2] appears, read: rat forebrain membranes, [3H]DAMGO, 25° C., 2.5 h, read-out: mu (Ki).
The mark [3] stands for this setting: NG108-15 cell membranes, stimulation of [35S]GTPγS binding, read-out: delta GTPγS EC50.
Setting [4] is: rat forebrain membranes, [3H]DPDPE or [3H]naltrindole, 25° C., 2.5 h, read-out: delta (Ki).

T1 sequence (P33533 whole entry): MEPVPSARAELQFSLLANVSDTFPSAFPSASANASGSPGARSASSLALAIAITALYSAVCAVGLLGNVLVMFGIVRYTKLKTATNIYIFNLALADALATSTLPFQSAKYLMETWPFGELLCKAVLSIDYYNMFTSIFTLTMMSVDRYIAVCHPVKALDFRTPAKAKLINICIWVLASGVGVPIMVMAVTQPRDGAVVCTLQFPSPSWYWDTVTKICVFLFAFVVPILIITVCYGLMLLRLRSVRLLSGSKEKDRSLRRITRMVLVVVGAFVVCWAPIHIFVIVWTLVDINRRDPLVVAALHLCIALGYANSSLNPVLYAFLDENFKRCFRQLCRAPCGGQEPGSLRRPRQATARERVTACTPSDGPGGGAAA
T3 sequence (P32300 whole entry): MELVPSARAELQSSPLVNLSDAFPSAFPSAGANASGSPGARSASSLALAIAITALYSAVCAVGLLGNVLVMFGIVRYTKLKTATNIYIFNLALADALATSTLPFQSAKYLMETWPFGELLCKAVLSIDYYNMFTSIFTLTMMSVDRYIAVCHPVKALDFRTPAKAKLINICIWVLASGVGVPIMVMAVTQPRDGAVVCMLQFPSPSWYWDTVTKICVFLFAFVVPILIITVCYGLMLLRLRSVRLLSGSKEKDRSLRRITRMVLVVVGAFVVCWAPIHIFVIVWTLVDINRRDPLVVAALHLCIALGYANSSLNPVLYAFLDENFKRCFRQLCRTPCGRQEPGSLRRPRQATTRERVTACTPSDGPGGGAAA
T2 sequence (P33535 whole entry): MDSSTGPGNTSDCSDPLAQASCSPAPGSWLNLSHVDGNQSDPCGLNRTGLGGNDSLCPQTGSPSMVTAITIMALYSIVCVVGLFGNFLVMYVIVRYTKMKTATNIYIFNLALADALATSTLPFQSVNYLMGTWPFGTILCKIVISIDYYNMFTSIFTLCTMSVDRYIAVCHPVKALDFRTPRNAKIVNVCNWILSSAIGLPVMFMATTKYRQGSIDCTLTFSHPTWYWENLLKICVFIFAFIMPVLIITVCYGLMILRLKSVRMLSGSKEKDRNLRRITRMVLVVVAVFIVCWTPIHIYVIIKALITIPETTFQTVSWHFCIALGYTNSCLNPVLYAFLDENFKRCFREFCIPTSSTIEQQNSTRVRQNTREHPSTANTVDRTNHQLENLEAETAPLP

Take `CCN(CC)C(=O)c1ccc2c(c1)Oc1ccccc1C2C1CCNCC1` (stereo not drawn) [8a, 9-Piperidin-4-yl-9H-xanthene-3-carboxylic acid diethylamide]: the Ki at delta opioid receptor turned out to be 15 nM; at mu opioid receptor (setting [2]), 8790 nM. In assay [1] (setting [3]), the EC50 worked out at 266 nM.
Regarding `CCN(CC)C(=O)c1cccc(-c2ccc3c(c2)Oc2c(O)cccc2C3C2CCNCC2)c1` (stereo not drawn) [3j, N,N-Diethyl-3-(5-hydroxy-9-piperidin-4-yl-9H-xanthen-3-yl)-benzamide], the Ki is 37.8 nM at delta opioid receptor and 535 nM at mu opioid receptor (setting [2]). The EC50 in assay [1] (setting [3]) came out at 342 nM.
On to `CCN(CC)C(=O)c1ccc2c(c1)Oc1c(O)cccc1C2C1CCNCC1` (stereo not drawn) [7c, 5-Hydroxy-9-piperidin-4-yl-9H-xanthene-3-carboxylic acid diethylamide], for which the values for the Ki at delta opioid receptor and on mu opioid receptor were 2 nM and 4230 nM, respectively. Also, the EC50 in assay [1] was 18.7 nM. In addition, the “delta GTPγS Rel Eff.” value in assay [1] (NG108-15 cell membranes, relative efficacy) was determined as 0.51.
As to `c1ccc2c(c1)Oc1cc(-c3ccncc3)ccc1C2C1CCNCC1` (stereo not drawn) [2h, 4-(9-Piperidin-4-yl-9H-xanthen-3-yl)-pyridine], the Ki on delta opioid receptor (setting [4]) is 4530 nM; at mu opioid receptor (setting [2]), more than 10000 nM.
On to `CCN(CC)C(=O)c1ccc2c(c1)Oc1c(OC)cccc1C2C1CCNCC1` (stereo not drawn) [6c, 5-Methoxy-9-piperidin-4-yl-9H-xanthene-3-carboxylic acid diethylamide], for which the Ki on delta opioid receptor (setting [4]) is 277 nM; at mu opioid receptor (setting [2]) it was more than 10000 nM.
Turning to `CCN(CC)C(=O)c1ccc2c(c1)Oc1ccccc1C2C1CCN(Cc2ccccn2)CC1` (stereo not drawn) [11a, 9-(1-Pyridin-2-ylmethyl-piperidin-4-yl)-9H-xanthene-3-carboxylic acid diethylamide], the Ki stood at 2700 nM at delta opioid receptor and 15100 nM at mu opioid receptor.
As to `C=CCN1CCC(C2c3ccccc3Oc3cc(-c4ccccc4NC(C)=O)ccc32)CC1` (stereo not drawn) [6g, N-{2-[9-(1-Allyl-piperidin-4-yl)-9H-xanthen-3-yl]-phenyl}-acetamide], the Ki on delta opioid receptor (setting [4]) turned out to be 1090 nM; on mu opioid receptor (setting [2]), 9630 nM.
